Results as given in US20210052537A1, “COLITIS AMELIORATING AGENT” (ASTA PHARMACEUTICALS, CO., LTD., priority 2018, published 2021).
Where “and” joins values, the source holds several entries; their conditions need not be identical. Equal entries are not always repeated.

Columns and labels:
DSS-induced colitis = DSS-induced colitis mouse model (experimental ulcerative colitis); type: in vivo; settings: for Fecal scoring average value: score 0-3
Protocol: In this Example, mouse models to which dextran sulfate sodium salt (DSS) is used will be described as colitis models. When DSS is administered by being mixed in drinking water of the mouse, an experimental ulcerative colitis model similar to human ulcerative colitis in terms of symptoms such as suppression of body weight increase, blood in stools, and anemia and formation of colon erosion and further lacking intestinal lesion was build (Non-Patent Literature 3). A suppression effect of Compound X on colitis in such a model as the representative colitis model was examined. For the evaluation items, recovery from diarrhea and body weight loss by colitis, and the length and weight of the colon were examined as changes in colon properties, which are widely known to occur by DSS-induced colitis.
For treatment, C57BL/6J, male mice were purchased from CHARLES RIVER LABORATORIES JAPAN, INC. in accordance with previous literature (Non-Patent Literature 2) and 5-week old mice with no abnormal general conditions during quarantine and acclimation period were used for the experiment. After acclimation, the animals were divided in such a way as to be 1 mouse per cage. DSS used in the experiment having a molecular weight of from 36,000 to 50,000 Da was purchased from MP Bio Japan. DSS was added to tap water in such a way as to be 3% and suspended for causing colitis. The suspension was prepared once every 3 days and freely provided to each of the mice as water supply. A solution from which DSS was removed was provided as water supply to a non-pathological control group.
After group division, each of the test substances of Table 1 was suspended in a solution of 0.5% sodium carboxymethyl cellulose (hereinafter, CMC, Nacalai Tesque Inc.) in such a way as to be each treatment of Table 1 and orally administered once daily. […] These control groups, Groups 1 and 2, were orally administered, as the test substance, with the 0.5% CMC solution used as the medium.
Drinking water after the group division was typical water for drinking.
The test started with 6 mice in Group No. 1 and 10 mice each in Group Nos. 2 to 6.
Body weights were measured on the DSS administration starting day (day −5), DSS administration last day (day 0), on day 3, day 5, day 8, and day 10 of test substance administration.
The therapeutic effect was evaluated by observing changes in blood in stools caused by enteritis as the body weight recovery alone can be considered that the body weight increase might have been promoted simply by the growth. Mice feces were observed on the DSS administration starting day (day-5), DSS administration last day (day 0), on day 3, day 5, day 8, and day 10 of test substance administration and scored in accordance with the criteria of Table 2.
(§1) For evaluating the therapeutic effect of Compound X, the length and weight of the colon were measured. The mice were euthanized under anesthesia on day 10 of test substance administration and dissected to remove the colon. The removed colon was quickly measured for a length in a relaxed state. Subsequently, feces in the intestinal tract were removed and sufficiently washed with phosphate buffered saline (Wako Pure Chemical Industries, Ltd.) and measured for a wet weight.

Oxa-induced colitis = assay: Oxazolone (Oxa)-induced colitis mouse model; type: in vivo; settings: for Colon length compared with Vehicle group / Colon wet weight compared with Vehicle group: Group Nos. 3 to 6 of Table 7, in words; for Colon length / Colon weight (wet weight per length): 6 days, day 7, mean ± SD
Excerpt: In this Example, mouse models to which oxazolone (4-ethoxymethylene-2-phenyl-2-oxazolin-5-on, hereinafter, Oxa) is used will be described as colitis models. When Oxa was first applied to skin, subsequently administered enterally after a certain period of time, an experimental ulcerative colitis model similar to human ulcerative colitis in terms of not only symptoms such as suppression of body weight increase, blood in stools, and anemia and formation of colon erosion but also immune cells was built (Non-Patent Literature 4). A suppression effect of Compound X on colitis in such a model as the test model showing pathological conditions more similar to human ulcerative colitis was examined. For the examination items, the length and weight of the colon were examined as changes in colon properties are widely known to occur also in this model.
For treatment, Balb/c, male mice were purchased from CHARLES RIVER LABORATORIES JAPAN, INC. in accordance with previous literature (Non-Patent Literature 5) and 8-week old mice with no abnormal general conditions during quarantine and acclimation period were used for the experiment. After acclimation, the animals were divided in such a way as to be 1 mouse per cage. Oxa used in the experiment was purchased from Sigma.
Fur at back of the neck was shaved in an area of 1.5×1.5 cm under anesthesia, and 150 μL (a 100% ethanol solution) of 3% (wt/vol) Oxa was added using a pipette and applied between the shoulders to sensitize (Day 1). The mice were kept under such a typical breeding environment, fasted for 16 hours from Day 7 (water supply was continued), and subsequently on Day 8 100 μL of a solution of 1% (wt/vol) Oxa in 50% ethanol was transanally administered into the rectum (3.5 cm from the anus) using a catheter under anesthesia. Hereinafter, the above treatment is described as Oxa treatment. After treatment, typical feeding breeding was carried out.
Starting on the day following intrarectal administration of Oxa, test substances were orally administered (once daily, for 6 days). 5-Aminosalicylic acid (hereinafter 5-ASA, Tokyo Chemical Industry, Co., Ltd.) and prednisolone (hereinafter, PSL, Sigma), which are anti-inflammatory agents used for treating ulcerative colitis, were used as positive controls for the test. After group division, each of the test substances of Table 6 was suspended in a solution of 0.5% sodium carboxymethyl cellulose (hereinafter, CMC, Nacalai Tesque Inc.) in such a way as to be each treatment of Table 6 and orally administered once daily. […] These control groups, Groups 1 and 2, were orally administered, as the test substance, with the 0.5% CMC solution which was used as the medium.
The test started with 6 mice in Group No. 1 and 9 mice each in Group Nos. 2 to 6. After the treatment started, death of animals in Group Nos. 2 to 6 due to the cause considered enteritis from Oxa treatment was observed and thus 6 mice in Group Nos. 1 and 3, and 5 mice in Group Nos. 2 and 6, and 7 mice in Group Nos. 4 and 5 were finally used for analysis.
as §1, with “It is generally acknowledged as a known fact that Oxa treatment causes colon tissue changes such as the length of colon is shortened while the weight increases. For” for “For”, “7” for “10”, “Oxa treatment” for “test substance administration”

[1] = DSS + 50 mg/kg/day oral, day 3, mean ± SD
[2] = DSS + 50 mg/kg/day oral, day 5, mean ± SD
[3] = Oxa treatment + 50 mg/kg/day oral, 50 mg/kg/day
[4] = Oxa treatment + 5 mg/kg/day oral, 5 mg/kg/day

Row | SMILES | Body weight recovery compared with the DSS administration only (DSS-induced colitis; 50 mg/kg/day oral, in words) | Time-dependent changes in blood feces score versus DSS administration group (DSS-induced colitis; 50 mg/kg/day oral, in words) | Fecal scoring average value (DSS-induced colitis; DSS + 50 mg/kg/day oral, day 0 (DSS last day), mean ± SD) | Body weight (DSS-induced colitis; [1]) | Fecal scoring average value (DSS-induced colitis; [1]) | Body weight (DSS-induced colitis; [2]) | Fecal scoring average value (DSS-induced colitis; [2]) | Fecal scoring average value (DSS-induced colitis; DSS + 50 mg/kg/day oral, day 8, mean ± SD) | Colon length (DSS-induced colitis; DSS + 50 mg/kg/day oral, day 10, mean ± SD, 50 mg/kg/day) | Fecal scoring average value (DSS-induced colitis; DSS + 50 mg/kg/day oral, day 10, mean ± SD) | Fecal scoring average value (DSS-induced colitis; DSS + 50 mg/kg/day oral, day −5 (before test substance), mean ± SD) | Colon length compared with DSS group (DSS-induced colitis; Group Nos. 3 to 5 (1, 10, 100 mg/kg/day) and Group No. 6 (50 mg/kg/day), in words) | Colon wet weight compared with DSS group (DSS-induced colitis; all treated groups of Table 5, in words) | Colon length compared with Vehicle group (Oxa-induced colitis) | Colon wet weight compared with Vehicle group (Oxa-induced colitis) | Colon length (Oxa-induced colitis; [3]) | Colon weight (wet weight per length) (Oxa-induced colitis; [3]) | Colon length (Oxa-induced colitis; [4]) | Colon weight (wet weight per length) (Oxa-induced colitis; [4])
1 | Nc1ccc(O)c(C(=O)O)c1 [Compound 5-ASA, 5-Aminosalicylic acid, reference compound] | significant body weight recovery | did not have a difference | 1.0 ± 0.0 | 15.5 ± 1.0 g | 1.5 ± 0.5 | 16.4 ± 1.7 g | 1.8 ± 1.0 | 0.0 ± 0.0 | 6.54 cm and 6.54 ± 0.29 cm | 0.0 ± 0.0 | 0.0 ± 0.0 | longer length of the colon than DSS group | suppressed weight increases compared with DSS group | longer length of the colon than Vehicle group | suppressed weight increases compared with Vehicle group | 7.41 cm and 7.41 ± 0.37 cm | 4.12 mg/mm and 4.12 ± 0.56 mg/mm |  | 
2 | C[C@]12C=CC(=O)C=C1CC[C@@H]1[C@@H]2[C@@H](O)C[C@@]2(C)[C@H]1CC[C@]2(O)C(=O)CO [PSL, prednisolone] |  |  |  |  |  |  |  |  |  |  |  |  |  | longer length of the colon than Vehicle group | suppressed weight increases compared with Vehicle group |  |  | 8.20 cm and 8.20 ± 0.52 cm | 3.37 mg/mm and 3.37 ± 0.36 mg/mm
